Source: US8318980B2, “UV absorbing compounds” (Fujifilm Manufacturing Europe B.V., priority 2007, dated 2012)
Entries after “also recorded” stand apart in the source; their conditions may differ.

How the values were obtained:
[1] = Heat stability test (UV-absorption left after storage at 50° C.); format: physicochemical; settings: for Heat stability: UV-absorption left after 5 days: 5 days at 50° C. in the dark; for Heat stability: UV-absorption left after 5 days / Heat stability: UV-absorption left after 50 days / Heat stability: UV-absorption left after 100 days: 1.5% in C12-C15 alkyl benzoate oil (compound 12: 5% in water), 375 nm versus sample stored at room temperature; for Heat stability: UV-absorption left after 50 days: 50 days at 50° C. in the dark; for Heat stability: UV-absorption left after 100 days: 100 days at 50° C. in the dark; for heat stability, in words: in C12-C15 alkylbenzoate oils
Description: Hereto, 1.5% solutions were prepared of compounds 4-11 and 13 in C12-C15 alkyl benzoate oil. […] The solutions were stored in closed vessels at 50° C. in the dark. After 5, 50 and 100 days, the UV-absorption of a diluted sample was measured at 375 nm comparative to a corresponding sample stored at room temperature. The UV-absorption left after each time span is shown in Table 4 indicated by + and − signs. ++ means >95% left, +− implies between 50-95% left, − indicates <50% left.

human skin = test: Skin penetration test in diffusion cell; format: in vitro ADME; settings: for penetration into or through the skin (UV analysis of DMSO skin extracts), in words / penetration through the skin (UV-analysis of collected receptor fluids), in words: human skin, diffusion cell; for penetration through the skin (UV-analysis of collected receptor fluids), in words: 20 hrs
Description: The skin-penetration was evaluated based on the same method described on page 21 of WO2006/009451. FIG. 2 is a drawing of the skin penetration test equipment, wherein (1) indicates the position of the test sample (donor compound), (2) an ⅛″ OD× 1/32″ wall tubing, (3) the receptor input, (4) the receptor compartment and (5) the compound and receptor output that is subjected to analysis.
A compound 3 donor solution was prepared by dissolving 30 mg of compound 3 in 4 ml EtOH and 7 ml phosphate buffer (PBS) at pH 7.4. Compound 4, 6, 7, 8 and 9 donor solutions were prepared by dispersing 80 mg of these compounds in olive oil.
For each compound 4 pieces of human skin (Ø ca 3 cm, mostly epidermis) were applied on a dialysis membrane and mounted into the diffusion cell shown in the FIG. 2. The figure is a schematic drawing of the diffusion cell, wherein is indicated 1: donor compound, 2: receptor compartment, 3: receptor input, 4: compound and receptor output for analysis, 5: ⅛″ OD× 1/32″ wall tubing. The cells were mounted on a temperature controlling and stirring device. The temperature was kept at 37°. The receptor fluid was a PBS buffer. The receptor compartment was stirred magnetically. 400 μl of the donor solution was applied. The receptor fluid flowing at a speed of 1 ml/hr was collected into glass tubes (1 tube/2 hrs). After 20 hrs the penetration experiment was terminated.
Furthermore the skin parts were extracted with DMSO to dissolve any UV-absorber in the epidermis. The extracts were analysed by UV.

[2] = Solubility test in C12-C15 alkyl benzoate oil (Finsolv TN); format: physicochemical; design: key to Solubility in Finsolv TN, dissolved amount (m/m %) 1% / Solubility in Finsolv TN, dissolved amount (m/m %) 5% / Solubility in Finsolv TN, dissolved amount (m/m %) 20% / Solubility in Finsolv TN, dissolved amount (m/m %) 50% / Solubility in Finsolv TN, dissolved amount (m/m %) 80% / Solubility in Finsolv TN, dissolved amount (m/m %) 90%: +=well-soluble; −=not soluble; settings: dissolved at 80° C. for 1 hour, cooled to room temperature, inspected after 24 hours; for Solubility in Finsolv TN, dissolved amount (m/m %) 1%: 1% m/m; for Solubility in Finsolv TN, dissolved amount (m/m %) 5%: 5% m/m; for Solubility in Finsolv TN, dissolved amount (m/m %) 20%: 20% m/m; for Solubility in Finsolv TN, dissolved amount (m/m %) 50%: 50% m/m; for Solubility in Finsolv TN, dissolved amount (m/m %) 80%: 80% m/m; for Solubility in Finsolv TN, dissolved amount (m/m %) 90%: 90% m/m
Description: The aminobutadiene compounds according to the present invention have an optimised solubility for cosmetic oils. […] In Table 3, the solubility of compounds 4, 12 and 13 is shown at various concentrations (+=well-soluble; -=not soluble). The compounds were dissolved at 80° C. while stirring for 1 hour and cooled down to room temperature. After 24 hours the solutions were inspected for any precipitates or crystals.

Structure (SMILES) | Heat stability: UV-absorption left after 5 days [1] | Heat stability: UV-absorption left after 50 days [1] | Heat stability: UV-absorption left after 100 days [1] | penetration into or through the skin (UV analysis of DMSO skin extracts), in words (human skin) | penetration through the skin (UV-analysis of collected receptor fluids), in words (human skin) | heat stability, in words [1] | Solubility in Finsolv TN, dissolved amount (m/m %) 1% [2] | Solubility in Finsolv TN, dissolved amount (m/m %) 5% [2] | Solubility in Finsolv TN, dissolved amount (m/m %) 20% [2] | Solubility in Finsolv TN, dissolved amount (m/m %) 50% [2] | Solubility in Finsolv TN, dissolved amount (m/m %) 80% [2] | Solubility in Finsolv TN, dissolved amount (m/m %) 90% [2] | Presence in receptor fluid after 6 h (human skin; human skin (mostly epidermis), 37°, PBS receptor fluid, compound 3 donor in EtOH/PBS pH 7.4, others dispersed in olive oil, UV-analysis) | Presence in skin extract (human skin; skin parts extracted with DMSO after the penetration experiment, UV analysis)
CCCCCCCCOC(=O)/C(=C/C=C/NCCCCCCN(/C=C\C=C(/C(=O)OCCCCCCCC)S(=O)(=O)c1ccccc1)CCCCCCN/C=C/C=C(\C(=O)OCCCCCCCC)S(=O)(=O)c1ccccc1)S(=O)(=O)c1ccccc1 [Compound 5, reference compound] | ++ (++ means >95% left) | +− (+− implies between 50-95% left) | +− (+− implies between 50-95% left) |  |  |  |  |  |  |  |  |  |  | 
CCCCCCCCOC(=O)C(=CC=CN(CCCC)CCCCCCN(C=CC=C(C(=O)OCCCCCCCC)S(=O)(=O)c1ccccc1)CCCCCCN(C=CC=C(C(=O)OCCCCCCCC)S(=O)(=O)c1ccccc1)CCCC)S(=O)(=O)c1ccccc1 [Compound 6] | ++ (++ means >95% left) | ++ (++ means >95% left) | ++ (++ means >95% left) | do not penetrate into or through the skin | no penetration | very heat stable |  |  |  |  |  |  |  | 
CCCCCCCCOC(=O)C(=CC=CN(CCN(CCN(C=CC=C(C(=O)OCCCCCCCC)S(=O)(=O)c1ccccc1)Cc1ccccc1)CCN(C=CC=C(C(=O)OCCCCCCCC)S(=O)(=O)c1ccccc1)Cc1ccccc1)Cc1ccccc1)S(=O)(=O)c1ccccc1 [Compound 7] | ++ (++ means >95% left) | ++ (++ means >95% left) | ++ (++ means >95% left) | do not penetrate into or through the skin | no penetration | very heat stable |  |  |  |  |  |  |  | 
CCCCCCCCOC(=O)C(=CC=CNCCN(CCNC=CC=C(C(=O)OCCCCCCCC)S(=O)(=O)c1ccccc1)CCNC=CC=C(C(=O)OCCCCCCCC)S(=O)(=O)c1ccccc1)S(=O)(=O)c1ccccc1 [Compound 10, reference compound] | ++ (++ means >95% left) | +− (+− implies between 50-95% left) | − (− indicates <50% left) |  |  |  |  |  |  |  |  |  |  | 
CCCCCCCCOC(=O)C(=CC=CNCCCN(CCCCN(CCCNC=CC=C(C(=O)OCCCCCCCC)S(=O)(=O)c1ccccc1)CCCNC=CC=C(C(=O)OCCCCCCCC)S(=O)(=O)c1ccccc1)CCCNC=CC=C(C(=O)OCCCCCCCC)S(=O)(=O)c1ccccc1)S(=O)(=O)c1ccccc1 [Compound 11, reference compound] | ++ (++ means >95% left) | +− (+− implies between 50-95% left) | − (− indicates <50% left) |  |  |  |  |  |  |  |  |  |  | 
CCCCCCCCOC(=O)C(=CC=CN(CCCC)CCN(C=CC=C(C(=O)OCCCCCCCC)S(=O)(=O)c1ccccc1)CCN(C=CC=C(C(=O)OCCCCCCCC)S(=O)(=O)c1ccccc1)CCCC)S(=O)(=O)c1ccccc1 [Compound 13] | ++ (++ means >95% left) | ++ (++ means >95% left) | ++ (++ means >95% left) |  |  | very heat stable; also recorded: good heat stability | + | + | + | − | − | − |  | 
CC(C)OC(=O)C(=CC=CN(CCCCCCN(C=CC=C(C(=O)OC(C)C)S(=O)(=O)c1ccccc1)Cc1ccccc1)CCCCCCN(C=CC=C(C(=O)OC(C)C)S(=O)(=O)c1ccccc1)Cc1ccccc1)S(=O)(=O)c1ccccc1 [Compound 17] | ++ (++ means >95% left) | ++ (++ means >95% left) | ++ (++ means >95% left) |  |  |  | − | − | − | − | − | − |  | 
CCCCC(CC)COC(=O)C(=CC=CN(CCCCCCN(C=CC=C(C(=O)OCC(CC)CCCC)S(=O)(=O)c1ccccc1)Cc1ccccc1)CCCCCCN(C=CC=C(C(=O)OCC(CC)CCCC)S(=O)(=O)c1ccccc1)Cc1ccccc1)S(=O)(=O)c1ccccc1 (centres unmarked) [Compound 18] | ++ (++ means >95% left) | ++ (++ means >95% left) | ++ (++ means >95% left) |  |  |  | + | − | − | − | − | − |  | 
CCCCCCCCCCCCCCCCCCOC(=O)C(=CC=CN(CCCCCCN(C=CC=C(C(=O)OCCCCCCCCCCCCCCCCCC)S(=O)(=O)c1ccccc1)Cc1ccccc1)CCCCCCN(C=CC=C(C(=O)OCCCCCCCCCCCCCCCCCC)S(=O)(=O)c1ccccc1)Cc1ccccc1)S(=O)(=O)c1ccccc1 [Compound 19] | ++ (++ means >95% left) | ++ (++ means >95% left) | ++ (++ means >95% left) |  |  |  | + | + | + | + | + | + |  | 
CCCCCCCCOC(=O)C(=CC=CN(C(C)=O)c1ccccc1)S(=O)(=O)c1ccccc1 [aminobutadiene 3, reference compound] |  |  |  | observed inside the skin sample | penetration |  |  |  |  |  |  |  | + (a ‘+’ means that more than 50% of the substance penetrates the skin) | + (a ‘+’ means that more than 50% of the substance penetrates the skin)
